From patent publication US10335445B2, “Compositions and methods of antiallergic phorbol ester and phorbol derivatives as the main active ingredients from the seeds of aquilaria malaccensis” (WE-WIN APPLIED BIO-TECH CO., LTD., priority 2016, dated 2019)

Legend:
RBL-2H3 cells [1] = experiment: antigen (DNP-BSA)-induced degranulation β-hexosaminidase release assay; assay type: cell-based; settings: Rattus norvegicus
Method: (§1) Cell culture: The mucosal mast cell-derived rat basophilic leukemia (RBL-2H3) cell line was purchased from the Bioresource Collection and Research Center (Hsin-Chu, Taiwan). Cells were grown in DMEM medium supplemented with 10% FBS and 100 U/mL penicillin plus 100 μg/mL streptomycin. Cells were cultured in 10 cm cell culture dishes at 37° C. in a humidified chamber with 5% CO2 in air.
(§2) Degranulation β-hexosaminidase assay induced by A23187 or antigen: The degree of A23187- and antigen-induced degranulation in RBL-2H3 cells was determined by a β-hexosaminidase release assay as described previously (Chen et al., J. Nat. Prod., 72, 950-953, 2009; Matsuda et al., Bioorg. Med. Chem., 12, 5891-5898, 2004) with following modifications. RBL-2H3 cells were seeded in a 96-well plate (2×10^4 cells/well) for A23187-induced and in 48-well plate (3×10^4 cells/well) for antigen-induced experiment. Cells were treated with various concentrations of the samples for 20 h. Dexamethasone (10 nM) was used as a positive control. The cells for the antigen-induced experiment were first sensitized with anti-DNP IgE (5 μg/mL) for at least 2 h. […] Absorbance was measured at 405 nm on a microplate reader (Multiskan Ascent, Thermo Scientific). The inhibition percentage of β-hexosaminidase release was calculated as the percentage of control value (untreated stimulated cells). […]

RBL-2H3 cells [2] = experiment: A23187-induced degranulation β-hexosaminidase release assay; assay type: cell-based; settings: Rattus norvegicus, A23187 1 μM
Method: as §1, §2

CCCCCCC/C=C/C=C/C=C\C(=O)O[C@@H]1[C@@H](C)[C@@]2(O)[C@@H](C=C(CO)C[C@]3(O)C(=O)C(C)=C[C@@H]23)[C@@H]2C(C)(C)[C@]12OC(C)=O [phorbol ester I, 12-O-(2Z,4E,6E)-tetradeca-2,4,6-trienoylphorbol-13-acetate]
IC50 (RBL-2H3 cells [1]): 11 nM
IC50 (RBL-2H3 cells [2]): 1.7 nM
